This is an account of results in US9328129B2, “Peptidomimetic inhibitors of PSMA” (Washington State University, priority 2010, dated 2016).

For test [1], the target named is T1, PSMA (Homo sapiens, UniProt Q04609).
T1 construct: endogenous in cells; host or cells: LNCaP
Put plainly: Competitive binding experiments: preincubation with unlabeled CTT-54 before the radiolabeled probe. To be noted: 0 nM CTT-54, probe 2 hours. It is filed as cell-based.

Test [2] relates to LNCaP (PSMA+) cells. Put plainly: Extent of internalization of the 99mTc-labeled probe. It is filed as cell-based. On the procedure: (§1) Both LNCaP (PSMA+) and PC3 (PSMA−) cells were treated with DTPA-SCN-CTT-54 labeled with pertechnetate (^99mTcO4^−) reduced with SnCl2. At increasing time points at 37° C., cells were washed free of the probe and uptake was determined as a percentage of the total amount of probe applied.

In test [3] the test system is LNCaP PSMA+ tumor xenografts. Kind of test: Biodistribution of the 99mTc-labeled probe in mice bearing LNCaP and PC3 tumor xenografts. It is filed as in vivo, mouse. To be noted: LNCaP PSMA+ tumor xenograft, 4 hours following tail-vein injection. The source says: Both PSMA+ (LNCaP) and PSMA− (PC3) tumor xenografts were implanted in opposite rear flanks of each mouse. Thus, each mouse served as both a positive and negative control.

In test [4] the test system is LNCaP (PSMA+) cells. Kind of test: Uptake of 99mTc-labeled DTPA-SCN-CTT-54 by cells, as percentage of total probe applied. The format is cell-based. How it is done: as §1

T1 sequence (Q04609 whole entry): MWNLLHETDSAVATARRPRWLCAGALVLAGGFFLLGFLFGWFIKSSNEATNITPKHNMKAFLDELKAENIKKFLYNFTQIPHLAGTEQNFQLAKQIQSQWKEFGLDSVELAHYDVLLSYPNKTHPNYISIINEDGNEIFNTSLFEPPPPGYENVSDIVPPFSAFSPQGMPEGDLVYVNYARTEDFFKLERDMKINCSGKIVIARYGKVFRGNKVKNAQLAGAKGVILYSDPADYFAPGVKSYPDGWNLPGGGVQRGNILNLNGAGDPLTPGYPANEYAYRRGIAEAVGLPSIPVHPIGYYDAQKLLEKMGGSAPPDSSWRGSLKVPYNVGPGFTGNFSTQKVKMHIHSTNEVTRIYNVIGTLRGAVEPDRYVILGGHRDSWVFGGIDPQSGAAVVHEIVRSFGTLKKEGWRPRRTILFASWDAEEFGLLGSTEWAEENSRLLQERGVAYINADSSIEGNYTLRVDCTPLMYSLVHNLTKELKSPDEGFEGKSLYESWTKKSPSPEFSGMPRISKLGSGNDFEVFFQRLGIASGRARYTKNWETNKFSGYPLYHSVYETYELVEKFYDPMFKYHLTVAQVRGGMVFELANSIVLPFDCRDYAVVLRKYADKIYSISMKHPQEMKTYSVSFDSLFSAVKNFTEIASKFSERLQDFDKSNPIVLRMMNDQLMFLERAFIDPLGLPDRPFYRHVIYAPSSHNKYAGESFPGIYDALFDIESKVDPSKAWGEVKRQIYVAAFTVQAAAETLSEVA

With `O=C(O)CC[C@H](NP(=O)(O)OC[C@H](NC(=O)CC[C@H](NC(=S)Nc1ccc(CC(CN(CCN(CC(=O)O)CC(=O)O)CC(=O)O)N(CC(=O)O)CC(=O)O)cc1)C(=O)O)C(=O)O)C(=O)O` (stereo partly drawn) [DTPA-SCN-CTT-54, N-{[(4-{2-[bis(carboxymethyl)amino]-3-[{2-[bis(carboxymethyl)amino]ethyl} (carboxymethyl)amino]propyl}phenyl)amino]carbonothioyl}-L-γ-glutamyl-O-[{[(1S)-1,3-dicarboxypropyl]amino} (hydroxy)phosphoryl]-L-serine], the “% Uptake of the radiolabeled probe without competitor” value in test [1] is listed as 4.46%.
For the compound `O=C(O)CC[C@H](NP(=O)(O)OC[C@H](NC(=O)CC[C@H](NC(=S)Nc1ccc(CC(CN(CCN(CC(=O)O)CC(=O)O)CC(=O)O)N(CC(=O)O)CC(=O)O)cc1)C(=O)O)C(=O)O)C(=O)O` (stereo partly drawn) (99mTc complex, metal not drawn) [DTPA-SCN-CTT-54, N-{[(4-{2-[bis(carboxymethyl)amino]-3-[{2-[bis(carboxymethyl)amino]ethyl} (carboxymethyl)amino]propyl}phenyl)amino]carbonothioyl}-L-γ-glutamyl-O-[{[(1S)-1,3-dicarboxypropyl]amino} (hydroxy)phosphoryl]-L-serine], the entries for the “% internalization” value in test [2] (30 min), in test [2] (2 hr) and in test [2] (4 hr) were 71.9%, 71.0% and 79.5%, respectively. For the same compound, the “extent of internalization of the probe” value in test [2] (preliminary studies) was “greater than 80%”. Also, the internalization entry in test [2] (within 30 min) is on record as “greater than 70%”. For the same compound, the “uptake in tumor xenografts (biodistribution)” value in test [3] is recorded as “substantial uptake”. Further, the “time for binding to the cell surface” value in test [4] was no more than 30 min. Also, the results for the “% uptake” value in test [4] (30 min), in test [4] (2 hr) and in test [4] (4 hr) were 2.30%, 2.94% and 2.34%, respectively. For the same compound, the “uptake (LNCaP versus PC3 cells)” value in test [4] (labeled with pertechnetate (99mTcO4−) reduced with SnCl2, increasing time points at 37° C.) is reported as “exclusive for LNCaP cells”.
